Data set [1] has as its system photosynthetic electron transport (PET) in spinach chloroplasts. The experiment in a line: Inhibition of photosynthetic electron transport (PET) in spinach chloroplasts, DCPIP photoreduction. Format: biochemical, Spinacia oleracea L. As to conditions: DCPIP as electron acceptor, pH 7.2. How it is done: Chloroplasts were prepared from spinach (Spinacia oleracea L.) according to ref. [54]. The inhibition of photosynthetic electron transport (PET) in spinach chloroplasts was determined spectrophotometrically (Genesys 6, Thermo Scientific, USA) using an artificial electron acceptor 2,6-dichlorophenol-indophenol (DCIPP) according to ref. [55], and the rate of photosynthetic electron transport was monitored as a photoreduction of DCPIP. The measurements were carried out in phosphate buffer (0.02 mol/L, pH 7.2) containing sucrose (0.4 mol/L), MgCl2 (0.005 mol/L) and NaCl (0.015 mol/L). The chlorophyll content was 30 mg/L in these experiments, and the samples were irradiated (~100 W/m^2) from 10 cm distance with a halogen lamp (250 W) using a 4 cm water filter to prevent warming of the samples (suspension temperature 22 °C). The studied compounds were dissolved in DMSO due to their limited water solubility.

Data set [2] is described as follows: Lipophilicity HPLC determination (capacity factor k / log k). Format: physicochemical. The following applies: RP-HPLC, C18 column, isocratic, MeOH 70% / H2O 30%. How it is done: The procedure was performed under isocratic conditions with methanol as an organic modifier in the mobile phase using an end-capped non-polar C18 stationary RP column. […] The HPLC separation process was monitored by Empower™ 2 Chromatography Data Software, Waters 2009 (Waters Corp., Milford, MA, USA). […] The detection wavelength of 210 nm was chosen. The KI methanolic solution was used for the dead time (tD) determination. Retention times (tR) were measured in minutes. […] Log k, calculated from the capacity factor k, is used as the lipophilicity index converted to log P scale.

The subject of another data set is Chlorella vulgaris. The experiment in a line: Reduction of chlorophyll content in green algae Chlorella vulgaris. Format: cell-based, Chlorella vulgaris Beij. The following applies: 168 h; for inhibition at 100 µM: 100 μmol/L of the compound, 7-day cultivation, read-out: Chlorella vulgaris reduction of Chl. cont.; for pIC50: read-out: Chlorella vulgaris IC50 (50% reduction of chlorophyll content), 7-day cultivation.

Data set [3] deals with seeds of Daucus carota L. var. sativa DC. Also noted: method as in doi:10.1271/bbb.60.1368. The following applies: 1 mmol/L; ref [13]; cited from earlier work.
Another data set has as its system seeds of Sesamum indicum. Also noted: method as in doi:10.1271/bbb.60.1368. The following applies: 1 mmol/L; ref [13]; cited from earlier work.
The subject of data set [4] is Daucus carota L. var. sativa DC. More on the design: method as in doi:10.1271/bbb.60.1368. As to conditions: 0.3 mmol/L; ref [13]; cited from earlier work.
Data set [5] concerns photosynthetic electron transport. Also noted: method as in doi:10.1584/jpestics.22.1. The following applies: ref [14], read-out: IC50 of PET inhibition, cited from earlier work.
For data set [6], the system named is cotyledons of Brassica rapa L. The following applies: 0.3 mmol/L; ref [11]; cited from earlier work.
Data set [7] concerns immature cells of Marchantia polymorpha. More on the design: method as in doi:10.1584/jpestics.22.1. The following applies: 1 mmol/L, within 90 hours; ref [14]; cited from earlier work.

Structures are written as SMILES. pIC50: −log10 of the molar value. Where two headings read alike, the source gives them in different places.

Description for Chlorella vulgaris: (photoperiod 16 h light/8 h dark; photosynthetically active radiation (PAR) 80 μmol/m^2s; pH 7.2). The effect of rhodanine compounds on algal chlorophyll (Chl) content was determined after 7-day cultivation in the presence of the compounds tested, expressing the response as percentage of the corresponding values obtained for control. The Chl content in the algal suspension was determined spectrophotometrically (Genesys 6, Thermo Scientific, USA) after extraction into methanol according to Wellburn [58].

The pIC50 is the IC50 on a negative log10 scale, so that one unit is a factor of ten. Compound `O=C1NC(=S)S/C1=C\c1cccc(Br)c1` [Compound 10b, (5Z)-5-(3-Bromobenzylidene)-2-thioxo-1,3-thiazolidin-4-one] gave a pIC50 in [1] of 5.28. In addition, the log k in data set [2] is listed as 1.0820.

As to `COc1cc(/C=C2\SC(=S)NC2=O)ccc1O` [Compound 5, (5Z)-5-(4-Hydroxy-3-methoxybenzylidene)-2-thioxo-1,3-thiazolidin-4-one], the inhibition at 100 µM with Chlorella vulgaris was found to be 19.4%. In data set [2], this compound gave a log k of 0.3553.

As to `O=C1NC(=S)S/C1=C\c1ccco1` [Compound 16, (5Z)-5-(Furan-2-ylmethylidene)-2-thioxo-1,3-thiazolidin-4-one], the log k in data set [2] worked out at 0.4656.

In the case of `O=C1NC(=S)S/C1=C\c1cccc(O)c1` [Compound 2b, (5Z)-5-(3-Hydroxybenzylidene)-2-thioxo-1,3-thiazolidin-4-one], in [1], the pIC50 was 3.35. Further, the inhibition at 100 µM in the data set with Chlorella vulgaris is 9.6%. The log k in data set [2] is recorded as 0.2744.

Regarding `O=C1NC(=S)S/C1=C\c1cccc([N+](=O)[O-])c1` [Compound 7b, (5Z)-5-(3-Nitrobenzylidene)-2-thioxo-1,3-thiazolidin-4-one], the pIC50 is 4.77 in data set [1] and 5.36 with Chlorella vulgaris. Further, the inhibition at 100 µM in the data set with Chlorella vulgaris amounted to 85.7%. The compound also registered a log k in [2] of 0.2399.

In turn, `O=C1/C(=C/c2ccc([N+](=O)[O-])cc2)SC(=S)N1CCO` [Compound 11c, (5Z)-3-(2-Hydroxyethyl)-5-(4-nitrobenzylidene)-2-thioxo-1,3-thiazolidin-4-one] registered a log k in data set [2] of 0.6349.

Take `O=C1NC(=S)S/C1=C\c1ccncc1` [Compound 14, (5Z)-5-(Pyridin-4-ylmethylidene)-2-thioxo-1,3-thiazolidin-4-one]: in data set [2], the log k amounted to 0.1878.

Take `O=C1/C(=C/c2ccccc2[N+](=O)[O-])SC(=S)N1CCO` [Compound 11a, (5Z)-3-(2-Hydroxyethyl)-5-(2-nitrobenzylidene)-2-thioxo-1,3-thiazolidin-4-one]: the pIC50 in data set [1] is 3.89. In [2], the log k was 0.4751.

On to `O=C(O)CN1C(=O)CSC1=S` [rhodanine-N-acetic acid], for which, in [3], the “inhibition of germination of seeds of Daucus carota” value is recorded as “inhibited”. In addition, in the data set on seeds of Sesamum indicum, the “inhibition of germination of seeds of Sesamum indicum” value is “inhibited”. The “inhibition of growth of Daucus carota” value in data set [4] is “strongly inhibited”.

In data set [1], `COc1ccc(/C=C2\SC(=S)NC2=O)cc1` [Compound 4c, (5Z)-5-(4-Methoxybenzylidene)-2-thioxo-1,3-thiazolidin-4-one] gave a pIC50 of 3.76. For the same compound, the log k in [2] was found to be 0.5425.

`COc1cccc(/C=C2\SC(=S)NC2=O)c1` [Compound 4b, (5Z)-5-(3-Methoxybenzylidene)-2-thioxo-1,3-thiazolidin-4-one] showed a pIC50 in data set [1] of 3.66. In addition, the log k in data set [2] is reported as 0.5713.

In turn, `O=C1NC(=S)S/C1=C\c1ccccc1F` [Compound 8a, (5Z)-5-(2-Fluorobenzylidene)-2-thioxo-1,3-thiazolidin-4-one] gave a pIC50 in data set [1] of 4.00. Also, the log k in [2] amounted to 0.8108.

The compound `O=C1NC(=S)S/C1=C\c1ccc(Br)cc1` [Compound 10c, (5Z)-5-(4-Bromobenzylidene)-2-thioxo-1,3-thiazolidin-4-one] gave a pIC50 in data set [1] of 5.52. The compound further returned a log k in data set [2] of 0.6940.

`O=C1NC(=S)S/C1=C\c1ccccc1[N+](=O)[O-]` [Compound 7a, (5Z)-5-(2-Nitrobenzylidene)-2-thioxo-1,3-thiazolidin-4-one] had a pIC50 in [1] of 3.37. Besides, the log k in data set [2] was 0.2254.

`COc1ccccc1/C=C1\SC(=S)NC1=O` [Compound 4a, (5Z)-5-(2-Methoxybenzylidene)-2-thioxo-1,3-thiazolidin-4-one] registered a log k in data set [2] of 0.5867.

Take `O=C1NC(=S)S/C1=C\c1ccccn1` [Compound 12, (5Z)-5-(Pyridin-2-ylmethylidene)-2-thioxo-1,3-thiazolidin-4-one]: the log k in data set [2] amounted to 0.4864.

As to `O=C1NC(=S)S/C1=C\c1ccc(F)cc1` [Compound 8c, (5Z)-5-(4-Fluorobenzylidene)-2-thioxo-1,3-thiazolidin-4-one], the pIC50 in [1] was 4.20. In data set [2], this compound had a log k of 0.7909.

Compound `O=C1NC(=S)S/C1=C\c1cccnc1` [Compound 13, (5Z)-5-(Pyridin-3-ylmethylidene)-2-thioxo-1,3-thiazolidin-4-one] had a log k in data set [2] of 0.4539.

As for `O=C1NC(=S)S/C1=C\c1ccc([N+](=O)[O-])cc1` [Compound 7c, (5Z)-5-(4-Nitrobenzylidene)-2-thioxo-1,3-thiazolidin-4-one], the pIC50 in data set [1] is 4.70. In the data set with Chlorella vulgaris, the inhibition at 100 µM came to 87.1% and the pIC50 was 4.66. In addition, the log k in data set [2] was 0.2436.

Consider `O=C1NC(=S)S/C1=C\c1cccc(Cl)c1` [Compound 9b, (5Z)-5-(3-Chlorobenzylidene)-2-thioxo-1,3-thiazolidin-4-one], for which the pIC50 in data set [1] was 4.77. In data set [2], this compound registered a log k of 1.0270.

`O=C1NC(=S)S/C1=C\c1ccccc1O` [Compound 2a, (5Z)-5-(2-Hydroxybenzylidene)-2-thioxo-1,3-thiazolidin-4-one] showed a pIC50 in [1] of 3.43. In the data set with Chlorella vulgaris, the inhibition at 100 µM worked out at 59% and the pIC50 was 4.23. In data set [2], this compound yielded a log k of 0.4664.

For `O=C1NC(=S)S/C1=C\c1ccccc1Br` [Compound 10a, (5Z)-5-(2-Bromobenzylidene)-2-thioxo-1,3-thiazolidin-4-one], the pIC50 in data set [1] is 4.74. In addition, the log k in data set [2] amounted to 0.9368.

The compound `O=C1NC(=S)S/C1=C\c1cccc(F)c1` [Compound 8b, (5Z)-5-(3-Fluorobenzylidene)-2-thioxo-1,3-thiazolidin-4-one] showed a pIC50 in data set [1] of 4.62. Further, in data set [2], the log k is 0.8204.

Take `CN(C)c1ccc(/C=C2\SC(=S)NC2=O)cc1` [Compound 6, (5Z)-5-[(4-Dimethylamino)benzylidene]-2-thioxo-1,3-thiazolidin-4-one]: the inhibition at 100 µM in the data set with Chlorella vulgaris stood at 12.6%. Also, the log k in data set [2] came to 0.6466.

Regarding `O=C1NC(=S)S/C1=C\c1ccc(O)cc1O` [Compound 3, (5Z)-5-(2,4-Hydroxybenzylidene)-2-thioxo-1,3-thiazolidin-4-one], in the data set with Chlorella vulgaris, the inhibition at 100 µM was 48.5% and the pIC50 was 3.97. In addition, the log k in [2] is 0.2776.

For `O=C1NC(=S)S/C1=C\c1ccc(Cl)cc1` [Compound 9c, (5Z)-5-(4-Chlorobenzylidene)-2-thioxo-1,3-thiazolidin-4-one], in [1], the pIC50 is 5.22. Besides, in the data set with Chlorella vulgaris, the inhibition at 100 µM was 84.8% and the pIC50 was 5.89. In addition, the log k in data set [2] is on record as 0.5936.

In [2], `O=C1/C(=C/c2cccc([N+](=O)[O-])c2)SC(=S)N1CCO` [Compound 11b, (5Z)-3-(2-Hydroxyethyl)-5-(3-nitrobenzylidene)-2-thioxo-1,3-thiazolidin-4-one] came in with a log k of 0.6077.

With `O=C1CSC(=S)N1` [rhodanine], the pIC50 is 4.00 in data set [5] (assay done after illumination for 3 min) and roughly 3.00 in data set [5] (normal 1 min assay). Moreover, the “inhibition of chlorophyll synthesis in cotyledons” value in data set [6] is listed as “strongly inhibited”. Further, the “inhibition of germination of seeds of Daucus carota” value in data set [3] is given as “inhibited”. Further, the “inhibition of germination of seeds of Sesamum indicum” value with seeds of Sesamum indicum is “inhibited”. Also, the “inhibition of growth of immature cells” value in data set [7] was “completely inhibited”. In addition, the “inhibition of growth of Daucus carota” value in data set [4] was “strongly inhibited”.

`O=C1NC(=S)S/C1=C\c1ccccc1Cl` [Compound 9a, (5Z)-5-(2-Chlorobenzylidene)-2-thioxo-1,3-thiazolidin-4-one] showed a pIC50 in data set [1] of 4.27. The log k in data set [2] is 0.9019.

In data set [1], `O=C1NC(=S)S/C1=C\c1cnccn1` [Compound 15, (5Z)-5-(Pyrazin-2-ylmethylidene)-2-thioxo-1,3-thiazolidin-4-one] had a pIC50 of 3.66. Besides, the inhibition at 100 µM with Chlorella vulgaris was 1.8%. This compound yielded a log k in [2] of 0.2359.

As to `O=C1NC(=S)S/C1=C\c1ccc(O)cc1` [Compound 2c, (5Z)-5-(4-Hydroxybenzylidene)-2-thioxo-1,3-thiazolidin-4-one], the inhibition at 100 µM in the data set with Chlorella vulgaris is 29.8%. In addition, the log k in [2] was determined as 0.2641.

Values taken from article PMC6264177, “Synthesis and Characterization of (Z)-5-Arylmethylidene-rhodanines with Photosynthesis-Inhibiting Properties ^†” (Molecules, 2011).
